The text below walks through data of ChEMBL document CHEMBL1201862, “PubChem BioAssay data set” (2004).

In test [1] the target is T1, Dual specificity protein phosphatase 6 (Rattus norvegicus, UniProt Q64346).
T1 sequence (Q64346 whole entry): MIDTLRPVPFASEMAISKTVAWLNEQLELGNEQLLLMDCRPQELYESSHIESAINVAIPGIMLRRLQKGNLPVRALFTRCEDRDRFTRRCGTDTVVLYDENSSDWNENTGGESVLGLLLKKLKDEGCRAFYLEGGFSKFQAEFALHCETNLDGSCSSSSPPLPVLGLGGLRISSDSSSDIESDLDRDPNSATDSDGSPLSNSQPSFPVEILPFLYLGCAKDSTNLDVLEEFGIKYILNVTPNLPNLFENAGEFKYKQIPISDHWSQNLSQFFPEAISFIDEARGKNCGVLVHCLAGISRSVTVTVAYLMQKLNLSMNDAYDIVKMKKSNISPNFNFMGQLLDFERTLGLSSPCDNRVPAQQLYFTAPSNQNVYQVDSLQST
As to the kind of experiment: inhibition of rat DUSP6 enzyme activity – biochemical, in vitro, primary screen (AID 425).

Test [2] concerns the target Troponin, cardiac muscle (Homo sapiens, UniProt P19429+P45379+P63316). As to the kind of experiment: compounds desensitizing RTF to calcium – biochemical, fluorescence, cardiac regulated thin filaments, triplicate IC50, dose response (AID 504742). Format: protein-complex assay.
Test [3] concerns the target T2, Tyrosine-protein phosphatase non-receptor type 22 (Homo sapiens, UniProt Q9Y2R2).
T2 sequence (Q9Y2R2 whole entry): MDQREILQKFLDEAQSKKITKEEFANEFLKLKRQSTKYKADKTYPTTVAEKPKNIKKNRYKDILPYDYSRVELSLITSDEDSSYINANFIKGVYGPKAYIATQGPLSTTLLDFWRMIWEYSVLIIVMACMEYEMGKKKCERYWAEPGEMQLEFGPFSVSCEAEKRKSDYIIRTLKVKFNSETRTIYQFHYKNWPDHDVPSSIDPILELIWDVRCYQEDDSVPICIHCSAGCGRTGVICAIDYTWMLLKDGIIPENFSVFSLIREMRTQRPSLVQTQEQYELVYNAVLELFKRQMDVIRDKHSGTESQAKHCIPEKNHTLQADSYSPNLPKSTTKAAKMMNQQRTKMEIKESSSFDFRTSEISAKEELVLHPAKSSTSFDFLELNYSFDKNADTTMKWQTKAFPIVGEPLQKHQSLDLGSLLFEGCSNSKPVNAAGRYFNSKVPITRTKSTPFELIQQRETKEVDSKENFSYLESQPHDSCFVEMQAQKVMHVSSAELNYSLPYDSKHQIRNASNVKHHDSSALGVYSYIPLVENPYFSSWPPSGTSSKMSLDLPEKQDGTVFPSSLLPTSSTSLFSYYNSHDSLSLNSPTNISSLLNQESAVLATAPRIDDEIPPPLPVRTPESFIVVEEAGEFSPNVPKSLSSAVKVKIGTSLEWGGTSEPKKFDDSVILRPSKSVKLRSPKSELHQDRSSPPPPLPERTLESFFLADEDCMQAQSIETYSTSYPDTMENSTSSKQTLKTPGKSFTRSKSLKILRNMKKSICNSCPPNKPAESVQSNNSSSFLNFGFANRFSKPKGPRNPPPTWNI
The experiment in a line: inhibition of lymphoid tyrosine phosphatase LYP – biochemical, pCAP fluorogenic substrate, fluorescence, set 3, SAR follow-up (AID 449727). Format: functional.

Test [4] in a line: DRD fibroblast viability loss – cell-based, non-viral oncogenic, luminescence, dose response (AID 1934). Format: functional. The settings on record: Homo sapiens.
For test [5], the target named is T3, Glutathione-S-transferase (Schistosoma japonicum, UniProt Q26513).
T3 sequence (Q26513 whole entry): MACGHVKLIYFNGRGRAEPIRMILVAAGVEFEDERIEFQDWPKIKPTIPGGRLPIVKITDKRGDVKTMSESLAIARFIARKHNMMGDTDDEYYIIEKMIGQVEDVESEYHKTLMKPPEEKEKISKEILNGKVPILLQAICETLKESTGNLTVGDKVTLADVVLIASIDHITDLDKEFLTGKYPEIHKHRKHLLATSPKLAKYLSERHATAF
The experiment in a line: GST-antibody interaction or FRET quenching – biochemical, TR-FRET, artefact control for Vif-APOBEC3G degradation inhibitor project, dose response (AID 1117362). Type of test: functional.

Test [6] in a line: Luminescence Cell-Based Dose Response HTS to Identify Inhibitors of 5'UTR Stem-Loop Driven Prion Protein mRNA Translation in H4 Neuroglioblastoma Cells. [Related pubchem assays: 1827 (Project Summary), 1813 (Primary HTS)]. Type of test: functional.
The target in test [7] is T4, Apoptotic protease-activating factor 1 (Homo sapiens, UniProt O14727).
T4 sequence (O14727 whole entry): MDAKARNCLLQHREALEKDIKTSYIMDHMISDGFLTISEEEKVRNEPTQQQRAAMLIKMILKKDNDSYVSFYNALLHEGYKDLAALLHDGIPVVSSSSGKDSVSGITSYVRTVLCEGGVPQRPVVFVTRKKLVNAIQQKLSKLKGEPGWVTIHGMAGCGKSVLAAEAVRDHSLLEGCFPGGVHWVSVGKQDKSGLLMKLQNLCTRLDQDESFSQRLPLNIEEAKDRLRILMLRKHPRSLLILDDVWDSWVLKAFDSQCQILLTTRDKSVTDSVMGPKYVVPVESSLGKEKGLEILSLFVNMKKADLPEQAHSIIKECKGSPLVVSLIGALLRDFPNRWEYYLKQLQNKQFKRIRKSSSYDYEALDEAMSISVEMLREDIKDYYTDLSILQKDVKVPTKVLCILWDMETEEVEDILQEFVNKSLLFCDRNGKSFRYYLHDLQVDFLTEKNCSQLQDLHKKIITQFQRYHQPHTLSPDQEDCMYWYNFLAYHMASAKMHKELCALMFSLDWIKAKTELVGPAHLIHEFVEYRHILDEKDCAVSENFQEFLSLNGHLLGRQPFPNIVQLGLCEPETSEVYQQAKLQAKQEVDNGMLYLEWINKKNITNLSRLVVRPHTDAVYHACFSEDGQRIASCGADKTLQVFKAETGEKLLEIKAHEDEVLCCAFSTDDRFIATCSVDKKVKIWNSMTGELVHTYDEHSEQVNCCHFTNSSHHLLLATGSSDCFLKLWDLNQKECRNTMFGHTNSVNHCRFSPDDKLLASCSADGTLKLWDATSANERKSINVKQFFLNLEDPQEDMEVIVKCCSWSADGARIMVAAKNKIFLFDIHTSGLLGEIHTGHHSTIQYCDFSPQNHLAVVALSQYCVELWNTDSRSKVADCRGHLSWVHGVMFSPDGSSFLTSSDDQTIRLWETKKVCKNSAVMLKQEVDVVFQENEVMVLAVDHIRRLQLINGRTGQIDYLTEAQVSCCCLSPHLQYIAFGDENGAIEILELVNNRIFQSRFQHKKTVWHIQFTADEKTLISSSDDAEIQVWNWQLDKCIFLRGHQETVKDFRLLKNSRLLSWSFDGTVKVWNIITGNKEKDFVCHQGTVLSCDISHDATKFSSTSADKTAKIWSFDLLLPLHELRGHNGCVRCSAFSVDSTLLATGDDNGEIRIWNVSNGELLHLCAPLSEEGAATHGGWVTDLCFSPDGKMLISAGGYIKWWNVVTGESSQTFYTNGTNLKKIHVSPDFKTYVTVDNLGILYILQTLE
The experiment in a line: activation of Apaf-1 mediated apoptosis – fluorescent, uHTS hits, dose response (AID 588554). Format: functional.

Active and inactive are the calls of the source.

With `O=C(O)COc1ccc(/C=N/NC(=O)c2ccc(-c3csc(Nc4ccc(Cl)cc4)n3)cc2)cc1`, the figures for the IC50 in test [1], in test [2] and in test [3] were 27.3 µM (active), > 71.5 µM (inactive) and 0.369 µM (active), respectively.

Take `CCN1/C(=C/c2ccc3cc(C)ccc3[n+]2CC)Sc2cc(C)c(C)cc21`: the EC50 (usually the midpoint of the concentration-response curve) in test [4] is 1.43 µM (active).

`COc1cc(NCCCNC(C)C)c2nccc(C)c2c1`: the IC50 (commonly the point on the concentration scale where inhibition reaches its midpoint) in test [5] was 28.7 µM (active).

For the molecule `Cc1oc2c(c1C(=O)c1ccccc1)C(=O)C(=O)c1ccccc1-2`, the EC50 in test [6] is > 120 µM (not active).

In the case of `CSc1ccc(C=NNc2ccc(S(=O)(=O)Nc3ccccc3C(=O)O)cc2[N+](=O)[O-])cc1`, the EC50 in test [7] is 8.23 µM (active).
